Experimental data reported in ChEMBL document CHEMBL5543086, “Discovery of novel NSAID hybrids as cPLA2/COX-2 dual inhibitors alleviating rheumatoid arthritis via inhibiting p38 MAPK pathway” (Eur J Med Chem, 2024).
Active and inactive are the calls of the source.

Columns and labels:
[1] = molecular target: T1, Prostaglandin G/H synthase 2 (Mus musculus) (UniProt Q05769); assay: Binding affinity to COX-2 in LPS-induced mouse RAW264.7 cells assessed as thermal stability at 30 uM pretreated with LPS for 24 hrs followed by compound addition and measured after 2 hrs by CETSA; type: cell-based
T1 sequence (whole entry): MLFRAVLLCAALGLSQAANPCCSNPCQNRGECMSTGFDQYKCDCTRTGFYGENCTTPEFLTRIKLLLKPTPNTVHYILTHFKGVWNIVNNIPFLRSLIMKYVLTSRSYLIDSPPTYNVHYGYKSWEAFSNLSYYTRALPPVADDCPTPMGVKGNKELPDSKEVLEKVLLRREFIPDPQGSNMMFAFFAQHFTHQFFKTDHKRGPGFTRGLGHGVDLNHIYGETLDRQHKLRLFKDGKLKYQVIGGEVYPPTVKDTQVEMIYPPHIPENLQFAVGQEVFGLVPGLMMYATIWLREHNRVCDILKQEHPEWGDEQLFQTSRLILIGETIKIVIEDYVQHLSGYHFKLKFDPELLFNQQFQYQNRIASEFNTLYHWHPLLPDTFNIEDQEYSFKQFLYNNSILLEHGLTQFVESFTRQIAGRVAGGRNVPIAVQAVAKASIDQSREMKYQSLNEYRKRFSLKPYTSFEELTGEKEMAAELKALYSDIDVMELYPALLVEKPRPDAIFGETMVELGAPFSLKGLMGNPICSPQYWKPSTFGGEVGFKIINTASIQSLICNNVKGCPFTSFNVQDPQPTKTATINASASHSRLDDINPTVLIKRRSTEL

[2] = test system: RAW264.7; assay: Antiinflammatory activity against LPS-induced mouse RAW264.7 cells assessed as inhibition of COX-2 protein expression pretreated for 1 hr followed by LPS stimulation and measured after 24 hrs by Western blot analysis; type: functional, cell-based; conditions: dose 2.5-10 µM, time 25.0 hrs
[3] = test system: RAW264.7; assay: Antiinflammatory activity against LPS-induced mouse RAW264.7 cells assessed as inhibition of phosphorylated p38 MAPK protein expression pretreated for 1 hr followed by LPS stimulation and measured after 24 hrs by Western blot analysis; type: functional, cell-based; conditions: dose 2.5-10 µM, time 25.0 hrs
[4] = Toxicity in Lewis rat model of Freund's complete adjuvant induced arthritis assessed as effect on growth by measuring reduction in body weight at 20 mg/kg, po administered every 24 to 48 hrs for 28 days post immunization starting from day 8 post immunization; type: organism-based; conditions: in vivo, 504 h, time 21 day
[5] = test system: Rattus norvegicus; assay: Analgesic activity in Freund's complete adjuvant induced Lewis rat model of arthritis assessed as increase in mechanical paw withdrawal threshold at 20 mg/kg, po administered every 24 to 48 hrs for 28 days post immunization starting from day 8 post immunization; type: functional, organism-based; conditions: time 21.0 day
[6] = test system: Rattus norvegicus; assay: (§1) Antiarthritic activity in Freund's complete adjuvant induced Lewis rat model of arthritis assessed as reduction in PGE2 level in serum at 20 mg/kg, po administered every 24 to 48 hrs for 28 days post immunization starting from day 8 post immunization by ELISA; type: functional, organism-based; conditions: time 21.0 day
[7] = species: Mus musculus; assay: Antiinflammatory activity in mouse model of cotton pellet implantation-induced granuloma; type: functional, organism-based
[8] = Toxicity in male Wistar rat assessed as gastrointestinal damage by measuring level-3 ulcers with >3 mm area at 100 mg/kg administered by gavage and measured after 6 hrs; type: organism-based; conditions: in vivo, po
[9] = test system: Rattus norvegicus; assay: as §1, with “joint tissue damage by measuring reduction” for “PGE2 level”, “inflammatory cell infiltration” for “serum”, “24” for “24 to 48”, “H and E staining based analysis” for “ELISA”; type: functional, organism-based; conditions: time 21.0 day
[10] = test system: Rattus norvegicus; assay: as §1, with “joint tissue damage by measuring reduction” for “PGE2 level”, “synovial hyperplasia” for “serum”, “24” for “24 to 48”, “H and E staining based analysis” for “ELISA”; type: functional, organism-based; conditions: time 21.0 day
[11] = test system: Rattus norvegicus; assay: as §1, with “joint tissue damage by measuring reduction” for “PGE2 level”, “cartilage degeneration” for “serum”, “24” for “24 to 48”, “H and E staining based analysis” for “ELISA”; type: functional, organism-based; conditions: time 21.0 day
[12] = test system: Rattus norvegicus; assay: Antiarthritic activity in Freund's complete adjuvant induced Lewis rat model of arthritis assessed as reduction in RORgammat protein expression at 20 mg/kg, po administered every 24 to 48 hrs for 28 days post immunization starting from day 8 post immunization by Western blot analysis; type: functional, organism-based; conditions: time 21.0 day
[13] = Toxicity in male Wistar rat assessed as gastrointestinal damage by measuring number of ulcers at 100 mg/kg administered by gavage and measured after 6 hrs (reference value: 0); type: organism-based; conditions: in vivo, po
[14] = Toxicity in male Wistar rat assessed as gastrointestinal damage by measuring ulcer index at 50 mg/kg administered by gavage and measured after 6 hrs; type: organism-based; conditions: in vivo, po
[15] = Hepatotoxicity in male Wistar rat assessed as effect on glutamic pyruvic transaminase level at 20 mg/kg, po administered for 3 days; type: toxicity, organism-based; conditions: in vivo, 72 h, time 3 day
[16] = Hepatotoxicity in male Wistar rat assessed as effect on glutamic oxalacetic transaminase level at 20 mg/kg, po administered for 3 days; type: toxicity, organism-based; conditions: in vivo, 72 h, time 3 day
[17] = molecular target: T2, Cytosolic phospholipase A2 (Mus musculus) (UniProt P47713); assay: Binding affinity to cPLA2 in LPS-induced mouse RAW264.7 cells assessed as thermal stability at 45 to 53 degreeC at 30 uM pretreated with LPS for 24 hrs followed by compound addition and measured after 2 hrs by CETSA; type: cell-based
T2 sequence (whole entry): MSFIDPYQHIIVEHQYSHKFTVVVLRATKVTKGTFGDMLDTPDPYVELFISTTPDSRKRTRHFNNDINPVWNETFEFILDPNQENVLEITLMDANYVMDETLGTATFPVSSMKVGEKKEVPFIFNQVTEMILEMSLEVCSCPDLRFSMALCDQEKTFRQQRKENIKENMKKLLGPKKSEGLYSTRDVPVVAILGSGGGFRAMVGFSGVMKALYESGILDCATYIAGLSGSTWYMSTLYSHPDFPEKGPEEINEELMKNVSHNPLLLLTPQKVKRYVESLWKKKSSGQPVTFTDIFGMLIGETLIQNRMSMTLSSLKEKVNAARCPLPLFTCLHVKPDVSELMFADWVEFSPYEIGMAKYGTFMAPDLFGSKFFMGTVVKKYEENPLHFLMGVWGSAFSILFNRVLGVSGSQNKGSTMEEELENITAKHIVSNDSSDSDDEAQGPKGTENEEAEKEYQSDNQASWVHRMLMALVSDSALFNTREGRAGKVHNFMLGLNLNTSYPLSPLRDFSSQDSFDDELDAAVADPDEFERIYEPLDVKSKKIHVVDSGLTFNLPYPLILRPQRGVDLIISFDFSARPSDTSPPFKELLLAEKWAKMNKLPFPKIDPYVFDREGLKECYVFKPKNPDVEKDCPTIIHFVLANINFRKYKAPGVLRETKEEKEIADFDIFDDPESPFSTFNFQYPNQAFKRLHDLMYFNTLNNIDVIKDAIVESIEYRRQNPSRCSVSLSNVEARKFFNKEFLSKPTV

CCCCC/C=C\C/C=C\C/C=C\C/C=C\CC/C=C(/OC(=O)C(C)c1ccc(C(=O)c2ccccc2)cc1)C(F)(F)F (configuration not stated)
Activity [1]: Active | Activity [2]: Dose-Dependent Effect | Activity [3]: Dose-Dependent Effect | Activity [4]: Non-Toxic | Activity [5]: Active | Activity [6]: Active | Activity [7]: Active | Activity [8]: 0% | Activity [9]: Active | Activity [10]: Active | Activity [11]: Active | Activity [12]: Active | Activity [13]: 7 | UI [14]: 0 | Activity [15]: Non-Toxic | Activity [16]: Non-Toxic | Activity [17]: Active
